The numbers were not newly measured in US7985754B2, “Selective antagonists of A2A adenosine receptors” (Trovis Pharmaceuticals, LLC, priority 2006, dated 2011), which cites them from elsewhere.

For data set [1] the following is noted: in words.
For data set [2] the following is noted: in words. The source holds these as a separate data set.

Consider `Nc1nc2c(cnn2CCc2ccccc2)c2nc(-c3ccco3)nn12` [SCH58261], for which the solubility result in data set [1] is recorded as “very poorly soluble”.

Turning to `Nc1nc(NCCc2ccc(O)cc2)nc2nc(-c3ccco3)nn12` [ZM241385], in data set [2], the bioavailability result was “poor bioavailability”.
